Laboratory results as given in patent US12714106B2 (Bayer Aktiengesellschaft, priority 2020, dated 2026).

Experiments:
Type in all cases: in vivo
[1] = tested on: ABUTH (Abutilon theophrasti); assay: Post-emergence greenhouse herbicide test, visual rating; conditions: for ABUTH Expected: Colby formula; for ABUTH synerg.: observed minus expected; for ABUTH Observed: post-emergence, 21 days after application
Experimental: (§1) Seeds of grass and broadleaf weeds were sown in pots (diameter: 7 cm) filled with a sandy loam soil. Following germination the plants were grown under optimal conditions up to a growth stage of BBCH 11 to 14 depending on species.
(§2) The applications were performed by post emergence treatments on the planted pots using a spray volume of 300 L water per hectare. The herbicides were applied alone and in combination as described.
(§3) The trial was conducted in the greenhouse ensuring optimal growing conditions.
(§4) The herbicidal effects were assessed 21 days following application by visual ratings comparing treated and untreated plants (0%=no effect to 100%=complete die-off).
(§5) The compounds of the formula (Ia), (Ib) and (I) were formulated as WP (wettable powder) formulation.
(§6) • BBCH=the BBCH code provides information about the morphological development stage of a plant. Officially, the abbreviation denotes the Biologische Bundesanstalt, Bundessortenamt and Chemische Industrie [Federal Biological Institute for Agriculture and Forestry, Federal Office for Crop Plant Varieties and Chemical Industry]. The range of BBCH 00-10 denotes the germination stages of the seeds until surface penetration. The range of BBCH 11-25 denotes the leaf development stages until stocking (corresponding to the number of tillers or side-shoots). In the Trials, the Following Biotypes of Broad-Leaved Weeds and Weed Grasses were Used: • ALOMY—sensitive (Alopecurus myosuroides) sensitive to customary herbicidally active compounds. • ALOMY_R (resistant) (Alopecurus myosuroides) resistant to herbicidally active compounds of the HRAC groups A and B; population mixture of field origin having increased metabolic resistance (IMR) and some target site resistance (TSR). • LOLRI—sensitive (Lolium rigidum) sensitive to customary herbicidally active compounds. • LOLRI_R (resistant) (Lolium rigidum) resistant to herbicidally active compounds of the HRAC groups A and B; population mixture of field origin having increased metabolic resistance (IMR) and some target site resistance (TSR). • AMAPA_R (resistant) (Amaranthus palmeri) resistant to herbicidally active compounds of the HRAC groups A and B; population mixture of field origin having increased metabolic resistance (IMR) and some target site resistance (TSR). • CHRVI (Chloris virgate) feather finger grass • KCHSC (Kochia scoparia) Mexican burning bush • MATIN (Matricaria inodora) false chamomile • POLCO (Polygonum convolvulus) black knotweed • ABUTH (Abutilon theophrasti) china jute • AMAPA (Amaranthus palmeri) palmer amaranth • BIDPI (Bidens pilosa) common blackjack • CHEAL (Chenopodium album) common lambsquarters • EPHHL (Euphorbia heterophylla) wild spurge • XANST (Xanthium strumarium) large cocklebur • EMEAU (Emex australis)—Cathead • GALAP (Gallium aparine)—Cleaver
(§7) The synergistic herbicidal activity was calculated using Colby's formula (cf. S. R. Colby; Weeds 15 (1967), 20-22): […]

[2] = tested on: AMAPA-R (resistant) (Amaranthus palmeri); assay: as above; conditions: for AMAPA-R Observed: post-emergence, 21 days after application
Experimental: as §1, §2, §3, §4, §5, §6, §7

BID PI (Bidens pilosa) = assay: as above; conditions: for BID PI Observed: post-emergence, 21 days after application
Experimental: as §1, §2, §3, §4, §5, §6, §7

[3] = tested on: CHEAL (Chenopodium album); assay: as above; conditions: for CHEAL Observed: post-emergence, 21 days after application
Experimental: as §1, §2, §3, §4, §5, §6, §7

CHRVI (Chloris virgate) = assay: as above; conditions: 12.5 g/ha; for CHRVI Observed: post-emergence, 21 days after application
Experimental: as §1, §2, §3, §4, §5, §6, §7

EMEAU (Emex australis) = assay: as above; conditions: for EMEAU Observed: post-emergence, 21 days after application
Experimental: as §1, §2, §3, §4, §5, §6, §7

[4] = tested on: EPHHL (Euphorbia heterophylla); assay: as above; conditions: for EPHHL Expected: Colby formula; for EPHHL synerg.: observed minus expected; for EPHHL Observed: post-emergence, 21 days after application
Experimental: as §1, §2, §3, §4, §5, §6, §7

GALAP (Gallium aparine) = assay: as above; conditions: 50 g/ha; for GALAP Observed: post-emergence, 21 days after application
Experimental: as §1, §2, §3, §4, §5, §6, §7

KCHSC (Kochia scoparia) = assay: as above; conditions: 12.5 g/ha; for KCHSC Observed: post-emergence, 21 days after application
Experimental: as §1, §2, §3, §4, §5, §6, §7

[5] = tested on: LOLRI - sensitive (Lolium rigidum); assay: as above; conditions: for LOLRI Expected: Colby formula; for LOLRI Synergism: observed minus expected; for LOLRI Observed: post-emergence, 21 days after application
Experimental: as §1, §2, §3, §4, §5, §6, §7

[6] = tested on: LOLRI_R (resistant) (Lolium rigidum); assay: as above; conditions: for LOLRI_R Expected: Colby formula; for LOLRI_R Synergism: observed minus expected; for LOLRI_R Observed: post-emergence, 21 days after application
Experimental: as §1, §2, §3, §4, §5, §6, §7

[7] = tested on: MATIN (Matricaria inodora); assay: as above; conditions: for MATIN Expected: Colby formula; for MATIN Synergism: observed minus expected; for MATIN Observed: post-emergence, 21 days after application
Experimental: as §1, §2, §3, §4, §5, §6, §7

[8] = tested on: POLCO (Polygonum convolvulus); assay: as above; conditions: 12.5 g/ha; for POLCO Observed: post-emergence, 21 days after application
Experimental: as §1, §2, §3, §4, §5, §6, §7

[9] = tested on: XANST (Xanthium strumarium); assay: as above; conditions: for XANST Expected: Colby formula; for XANST synerg.: observed minus expected; for XANST Observed: post-emergence, 21 days after application
Experimental: as §1, §2, §3, §4, §5, §6, §7

[10] = tested on: grass and broadleaf weeds; assay: Comparative testing of crystalline (I), (Ia), (Ib), summary of tables 3 to 6; conditions: see tables 3 to 6; for herbicidal activity compared with the other crystalline forms: (I) vs (Ia), (Ia) vs (Ib)
Experimental: as §1, §2, §3, §4, §5, §7

[11] = 25 g/ha (Ia) + 25 g/ha (Ib), Colby formula
[12] = 25 g/ha (Ia) + 25 g/ha (Ib), observed minus expected

SMILES: C=C[C@]1(C(=O)N[C@H]2CO[C@@H](C(=O)OC)C2)CC(c2cc(F)cc(F)c2)=NO1 (relative stereo) [(I), methyl(2R*,4R*)-4-[[(5S)-3-(3,5-difluorophenyl)-5-vinyl-4H-isoxazole-5-carbonyl]amino]tetrahydrofuran-2-carboxylate]
- ABUTH Expected ([1]; 25 g/ha (Ia) + 25 g/ha (Ib)): 51%
- ABUTH synerg. ([1]; 25 g/ha (Ia) + 25 g/ha (Ib)): 25%
- ABUTH Observed ([1]; 25 g/ha (Ia) + 25 g/ha (Ib)): 75%
- ABUTH Expected ([1]; 50 g/ha (Ia) + 50 g/ha (Ib)): 68%
- ABUTH synerg. ([1]; 50 g/ha (Ia) + 50 g/ha (Ib)): 7%
- ABUTH Observed ([1]; 50 g/ha (Ia) + 50 g/ha (Ib)): 75%
- AMAPA-R Expected [2, 11]: 51%
- AMAPA-R synerg. [2, 12]: 14%
- AMAPA-R Observed ([2]; 25 g/ha (Ia) + 25 g/ha (Ib)): 65%
- BID PI Expected (BID PI (Bidens pilosa); [11]): 37%
- BID PI synerg. (BID PI (Bidens pilosa); [12]): 28%
- BID PI Observed (BID PI (Bidens pilosa); 25 g/ha (Ia) + 25 g/ha (Ib)): 65%
- CHEAL Expected [3, 11]: 76%
- CHEAL synerg. [3, 12]: 19%
- CHEAL Observed ([3]; 25 g/ha (Ia) + 25 g/ha (Ib)): 95%
- CHRVI Expected (CHRVI (Chloris virgate); Colby formula): 48%
- CHRVI Synergism (CHRVI (Chloris virgate); observed minus expected): 47%
- CHRVI Observed (CHRVI (Chloris virgate)): 95%
- EMEAU Expected (EMEAU (Emex australis); 12.5 g/ha (row as printed), Colby formula): 89%
- EMEAU Synergism (EMEAU (Emex australis); 12.5 g/ha (row as printed), observed minus expected): 8%
- EMEAU Observed (EMEAU (Emex australis); 12.5 g/ha (row as printed)): 97%
- EPHHL Expected ([4]; 25 g/ha (Ia) + 25 g/ha (Ib)): 55%
- EPHHL synerg. ([4]; 25 g/ha (Ia) + 25 g/ha (Ib)): 11%
- EPHHL Observed ([4]; 25 g/ha (Ia) + 25 g/ha (Ib)): 65%
- EPHHL Expected ([4]; 50 g/ha (Ia) + 50 g/ha (Ib)): 58%
- EPHHL synerg. ([4]; 50 g/ha (Ia) + 50 g/ha (Ib)): 12%
- EPHHL Observed ([4]; 50 g/ha (Ia) + 50 g/ha (Ib)): 70%
- GALAP Expected (GALAP (Gallium aparine); Colby formula): 84%
- GALAP Synergism (GALAP (Gallium aparine); observed minus expected): 6%
- GALAP Observed (GALAP (Gallium aparine)): 90%
- KCHSC Expected (KCHSC (Kochia scoparia); Colby formula): 82%
- KCHSC Synergism (KCHSC (Kochia scoparia); observed minus expected): 13%
- KCHSC Observed (KCHSC (Kochia scoparia)): 95%
- LOLRI Expected ([5]; 6.25 g/ha): 20%
- LOLRI Synergism ([5]; 6.25 g/ha): 55%
- LOLRI Observed ([5]; 6.25 g/ha): 75%
- LOLRI Expected ([5]; 12.5 g/ha): 90%
- LOLRI Synergism ([5]; 12.5 g/ha): 5%
- LOLRI Observed ([5]; 12.5 g/ha): 95%
- LOLRI_R Expected ([6]; 6.25 g/ha): 15%
- LOLRI_R Synergism ([6]; 6.25 g/ha): 15%
- LOLRI_R Observed ([6]; 6.25 g/ha): 30%
- LOLRI_R Expected ([6]; 12.5 g/ha): 20%
- LOLRI_R Synergism ([6]; 12.5 g/ha): 20%
- LOLRI_R Observed ([6]; 12.5 g/ha): 40%
- LOLRI_R Expected ([6]; 25 g/ha): 30%
- LOLRI_R Synergism ([6]; 25 g/ha): 10%
- LOLRI_R Observed ([6]; 25 g/ha): 40%
- MATIN Expected ([7]; 12.5 g/ha): 0%
- MATIN Synergism ([7]; 12.5 g/ha): 15%
- MATIN Observed ([7]; 12.5 g/ha): 15%
- MATIN Expected ([7]; 25 g/ha): 0%
- MATIN Synergism ([7]; 25 g/ha): 15%
- MATIN Observed ([7]; 25 g/ha): 15%
- MATIN Expected ([7]; 50 g/ha): 0%
- MATIN Synergism ([7]; 50 g/ha): 20%
- MATIN Observed ([7]; 50 g/ha): 20%
- POLCO Expected ([8]; Colby formula): 91%
- POLCO Synergism ([8]; observed minus expected): 4%
- POLCO Observed [8]: 95%
- XANST Expected ([9]; 25 g/ha (Ia) + 25 g/ha (Ib)): 0%
- XANST synerg. ([9]; 25 g/ha (Ia) + 25 g/ha (Ib)): 35%
- XANST Observed ([9]; 25 g/ha (Ia) + 25 g/ha (Ib)): 35%
- XANST Expected ([9]; 50 g/ha (Ia) + 50 g/ha (Ib)): 28%
- XANST synerg. ([9]; 50 g/ha (Ia) + 50 g/ha (Ib)): 7%
- XANST Observed ([9]; 50 g/ha (Ia) + 50 g/ha (Ib)): 35%
- XANST Expected ([9]; 100 g/ha (Ia) + 100 g/ha (Ib)): 36%
- XANST synerg. ([9]; 100 g/ha (Ia) + 100 g/ha (Ib)): 29%
- XANST Observed ([9]; 100 g/ha (Ia) + 100 g/ha (Ib)): 65%
- herbicidal activity compared with the other crystalline forms [10]: superior in herbicidal activity
- synergistic effect of the physical mixture of (Ia) and (Ib) [10]: synergistic effect

SMILES: C=C[C@]1(C(=O)N[C@H]2CO[C@@H](C(=O)OC)C2)CC(c2cc(F)cc(F)c2)=NO1 [(Ia), methyl(2R,4R)-4-[[(5S)-3-(3,5-difluorophenyl)-5-vinyl-4H-isoxazole-5-carbonyl]amino]-tetrahydrofuran-2-carboxylate]
- ABUTH Observed ([1]; 25 g/ha single isomer): 45%
- ABUTH Observed ([1]; 50 g/ha single isomer): 60%
- AMAPA-R Observed ([2]; 25 g/ha single isomer): 35%
- BID PI Observed (BID PI (Bidens pilosa); 25 g/ha single isomer): 30%
- CHEAL Observed ([3]; 25 g/ha single isomer): 70%
- CHRVI Observed (CHRVI (Chloris virgate)): 35%
- EMEAU Observed (EMEAU (Emex australis); 50 g/ha): 80%
- EPHHL Observed ([4]; 25 g/ha single isomer): 30%
- EPHHL Observed ([4]; 50 g/ha single isomer): 35%
- GALAP Observed (GALAP (Gallium aparine)): 75%
- KCHSC Observed (KCHSC (Kochia scoparia)): 70%
- LOLRI Observed ([5]; 6.25 g/ha): 20%
- LOLRI Observed ([5]; 12.5 g/ha): 90%
- LOLRI_R Observed ([6]; 6.25 g/ha): 15%
- LOLRI_R Observed ([6]; 12.5 g/ha): 20%
- LOLRI_R Observed ([6]; 25 g/ha): 30%
- MATIN Observed ([7]; 12.5 g/ha): 0%
- MATIN Observed ([7]; 25 g/ha): 0%
- MATIN Observed ([7]; 50 g/ha): 0%
- POLCO Observed [8]: 85%
- XANST Observed ([9]; 25 g/ha single isomer): 0%
- XANST Observed ([9]; 50 g/ha single isomer): 20%
- XANST Observed ([9]; 100 g/ha single isomer): 20%
- herbicidal activity compared with the other crystalline forms [10]: superior in activity
